# Test system: MV-4-11 cells
# Test: Gene expression microarray analysis (Affymetrix PrimeView) and GSEA
# Assay type: cell-based, human
# Set-up: RFU PODN (11730768_x_at) / Fold change /veh PODN (11730768_x_at) / RFU LINC00158 (11744669_a_at) / Fold change /veh LINC00158 (11744669_a_at) / RFU DUSP10 (11751237_a_at) / Fold change /veh DUSP10 (11751237_a_at) / RFU ID3 (11757404_x_at) / Fold change /veh ID3 (11757404_x_at) / RFU PLEKHG5 (11737974_s_at) / Fold change /veh PLEKHG5 (11737974_s_at) / RFU LRRC4B (11730491_at) / Fold change /veh LRRC4B (11730491_at) / RFU GIMAP4 (11747438_a_at) / Fold change /veh GIMAP4 (11747438_a_at) / RFU KRT8 (11758183_x_at) / Fold change /veh KRT8 (11758183_x_at) / RFU CNN1 (11734310_a_at) / Fold change /veh CNN1 (11734310_a_at) / RFU VPS37D (11726825_at) / Fold change /veh VPS37D (11726825_at) / RFU C10orf10 (11716522_x_at) / Fold change /veh C10orf10 (11716522_x_at) / RFU KIR2DL2 /// KIR2DL4 /// KIR2DL5A /// KIR2DL5B /// KIR2DS1 /// KIR2DS2 /// KIR2DS3 /// KIR2DS4 /// KIR3DL3 /// KIR3DL3 /// KIR3DS1 (11738374_at) / Fold change /veh KIR2DL2 /// KIR2DL4 /// KIR2DL5A /// KIR2DL5B /// KIR2DS1 /// KIR2DS2 /// KIR2DS3 /// KIR2DS4 /// KIR3DL3 /// KIR3DL3 /// KIR3DS1 (11738374_at) / RFU C1QL1 (11718748_at) / Fold change /veh C1QL1 (11718748_at) / RFU TMPRSS4 (11747572_a_at) / Fold change /veh TMPRSS4 (11747572_a_at) / RFU HAMP (11756126_x_at) / Fold change /veh HAMP (11756126_x_at) / RFU RNFT2 (11725882_a_at) / Fold change /veh RNFT2 (11725882_a_at) / RFU NR4A2 (11747474_a_at) / Fold change /veh NR4A2 (11747474_a_at) / RFU ABCC12 (11746883_a_at) / Fold change /veh ABCC12 (11746883_a_at) / RFU TMEM136 (11760407_x_at) / Fold change /veh TMEM136 (11760407_x_at) / RFU CLDN22 /// WWC2 (11732394_at) / Fold change /veh CLDN22 /// WWC2 (11732394_at) / RFU HLA-DPB1 (11760878_x_at) / Fold change /veh HLA-DPB1 (11760878_x_at) / RFU SPINT1 (11716480_a_at) / Fold change /veh SPINT1 (11716480_a_at) / RFU GAP43 (11754022_s_at) / Fold change /veh GAP43 (11754022_s_at) / RFU A4GNT (11735810_at) / Fold change /veh A4GNT (11735810_at) / RFU PRB3 (11715151_x_at) / Fold change /veh PRB3 (11715151_x_at) / RFU TUBB4B (11761932_at) / Fold change /veh TUBB4B (11761932_at) / RFU CAPN14 (11732068_a_at) / Fold change /veh CAPN14 (11732068_a_at) / RFU TMCC2 (11721928_a_at) / Fold change /veh TMCC2 (11721928_a_at) / RFU IRGQ (11745062_a_at) / Fold change /veh IRGQ (11745062_a_at) / RFU FAM174B (11720279_a_at) / Fold change /veh FAM174B (11720279_a_at) / RFU TMPRSS4 (11748680_a_at) / Fold change /veh TMPRSS4 (11748680_a_at) / RFU FAM212B (11763350_a_at) / Fold change /veh FAM212B (11763350_a_at) / RFU PLEKHG5 (11743358_a_at) / Fold change /veh PLEKHG5 (11743358_a_at) / RFU ZSCAN30 (11745921_a_at) / Fold change /veh ZSCAN30 (11745921_a_at) / RFU CMKLR1 (11741424_a_at) / Fold change /veh CMKLR1 (11741424_a_at) / RFU LOC101060620 /// MAPK8IP1 (11723275_at) / Fold change /veh LOC101060620 /// MAPK8IP1 (11723275_at) / RFU SPTSSB (11747773_x_at) / Fold change /veh SPTSSB (11747773_x_at) / RFU PRSS12 (11739890_at) / Fold change /veh PRSS12 (11739890_at) / RFU BIN1 (11741810_x_at) / Fold change /veh BIN1 (11741810_x_at) / RFU WNT11 (11732464_a_at) / Fold change /veh WNT11 (11732464_a_at) / RFU C10orf10 (11716521_a_at) / Fold change /veh C10orf10 (11716521_a_at) / RFU C5orf56 (11738089_at) / Fold change /veh C5orf56 (11738089_at) / RFU CYB561 (11721691_x_at) / Fold change /veh CYB561 (11721691_x_at) / RFU ANKRD19P (11752326_a_at) / Fold change /veh ANKRD19P (11752326_a_at) / RFU OR2T12 /// OR2T33 /// OR2T8 (11738714_s_at) / Fold change /veh OR2T12 /// OR2T33 /// OR2T8 (11738714_s_at) / RFU VCAN (11748164_a_at) / Fold change /veh VCAN (11748164_a_at) / RFU JSRP1 (11732532_at) / Fold change /veh JSRP1 (11732532_at) / RFU KRTAP10-11 (11738290_x_at) / Fold change /veh KRTAP10-11 (11738290_x_at) / RFU MYO3A (11730013_a_at) / Fold change /veh MYO3A (11730013_a_at) / RFU EBF3 (11725865_a_at) / Fold change /veh EBF3 (11725865_a_at) / RFU CAMK2N1 (11719241_x_at) / Fold change /veh CAMK2N1 (11719241_x_at) / RFU C5orf56 (11738088_a_at) / Fold change /veh C5orf56 (11738088_a_at) / RFU OLFML3 (11715873_a_at) / Fold change /veh OLFML3 (11715873_a_at) / RFU LOC100653217 /// NTM (11731650_a_at) / Fold change /veh LOC100653217 /// NTM (11731650_a_at) / RFU MAPK11 (11762145_a_at) / Fold change /veh MAPK11 (11762145_a_at) / RFU FIZ1 (11724087_x_at) / Fold change /veh FIZ1 (11724087_x_at) / RFU OASL (11726364_x_at) / Fold change /veh OASL (11726364_x_at) / RFU SOX15 (11748057_x_at) / Fold change /veh SOX15 (11748057_x_at) / RFU CD79A (11719716_a_at) / Fold change /veh CD79A (11719716_a_at) / RFU HIST1H1D (11736915_at) / Fold change /veh HIST1H1D (11736915_at) / RFU CASKIN2 (11723855_a_at) / Fold change /veh CASKIN2 (11723855_a_at) / RFU LOC730098 (11760151_x_at) / Fold change /veh LOC730098 (11760151_x_at) / RFU OR4N2 (11742367_at) / Fold change /veh OR4N2 (11742367_at) / RFU PRRT2 (11749266_a_at) / Fold change /veh PRRT2 (11749266_a_at) / RFU SNX32 (11753110_a_at) / Fold change /veh SNX32 (11753110_a_at) / RFU CDHR5 (11726645_a_at) / Fold change /veh CDHR5 (11726645_a_at) / RFU RCAN1 (11760418_a_at) / Fold change /veh RCAN1 (11760418_a_at) / RFU FAM167A (11723789_a_at) / Fold change /veh FAM167A (11723789_a_at) / RFU FAM26E (11764081_at) / Fold change /veh FAM26E (11764081_at) / RFU ISYNA1 (11749810_s_at) / Fold change /veh ISYNA1 (11749810_s_at) / RFU ACY1 (11761880_at) / Fold change /veh ACY1 (11761880_at) / RFU 11764098_at / Fold change /veh 11764098_at / RFU SAMD14 (11745864_x_at) / Fold change /veh SAMD14 (11745864_x_at) / RFU NPB (11741838_a_at) / Fold change /veh NPB (11741838_a_at) / RFU TMPRSS6 (11731388_a_at) / Fold change /veh TMPRSS6 (11731388_a_at) / RFU KRTAP10-2 (11738614_at) / Fold change /veh KRTAP10-2 (11738614_at) / RFU ARHGAP8 /// PRR5-ARHGAP8 (11727945_x_at) / Fold change /veh ARHGAP8 /// PRR5-ARHGAP8 (11727945_x_at) / RFU KRTAP5-7 /// NADSYN1 (11734609_at) / Fold change /veh KRTAP5-7 /// NADSYN1 (11734609_at) / RFU RASL12 (11751679_a_at) / Fold change /veh RASL12 (11751679_a_at) / RFU CDKN2B (11736163_a_at) / Fold change /veh CDKN2B (11736163_a_at) / RFU PRF1 (11729649_at) / Fold change /veh PRF1 (11729649_at) / RFU, ZNF638 /// ZNF638-IT1 / Fold change vs veh, ZNF638 /// ZNF638-IT1 / RFU, PANK3 / Fold change vs veh, PANK3 / RFU, SH3YL1 / Fold change vs veh, SH3YL1 / RFU, ZEB2 / Fold change vs veh, ZEB2 / RFU, NRIP1 / Fold change vs veh, NRIP1 / RFU, PTTG1IP / Fold change vs veh, PTTG1IP / RFU, CAPN2 / Fold change vs veh, CAPN2 / RFU, MED14 / Fold change vs veh, MED14 / RFU, SNORA58 / Fold change vs veh, SNORA58 / RFU, C1orf63 / Fold change vs veh, C1orf63 / RFU, LRRFIP1 / Fold change vs veh, LRRFIP1 / RFU, NDUFAF7 / Fold change vs veh, NDUFAF7 / RFU, SLC12A2 / Fold change vs veh, SLC12A2 / RFU, IBTK / Fold change vs veh, IBTK / RFU, ESF1 / Fold change vs veh, ESF1 / Fold change vs veh, TMEM50B / RFU, TAOK1 / Fold change vs veh, TAOK1 / RFU, ACBD3 / Fold change vs veh, ACBD3 / RFU, TMA16 / Fold change vs veh, TMA16 / RFU, RWDD3 / Fold change vs veh, RWDD3 / RFU, BCAT1 / Fold change vs veh, BCAT1 / RFU, EDEM3 / Fold change vs veh, EDEM3 / RFU, TMEM33 / Fold change vs veh, TMEM33 / RFU, WDR75 / Fold change vs veh, WDR75 / RFU, AHCTF1 / Fold change vs veh, AHCTF1 / RFU, TFRC / Fold change vs veh, TFRC / RFU, ZDHHC17 / Fold change vs veh, ZDHHC17 / RFU, NOM1 / Fold change vs veh, NOM1 / RFU, ARL8B / Fold change vs veh, ARL8B / RFU, ZBTB11 / Fold change vs veh, ZBTB11 / RFU, TAMM41 / Fold change vs veh, TAMM41 / RFU, KIAA1704 /// LOC100996395 / Fold change vs veh, KIAA1704 /// LOC100996395 / RFU, ING1 / Fold change vs veh, ING1 / RFU, TRMT61B / Fold change vs veh, TRMT61B / RFU, FUBP3 / Fold change vs veh, FUBP3 / RFU, TP53 / Fold change vs veh, TP53 / RFU, TNKS2 / Fold change vs veh, TNKS2 / RFU, ZFP14 / Fold change vs veh, ZFP14 / RFU, ACTR2 / Fold change vs veh, ACTR2 / RFU, PPP3R1 / Fold change vs veh, PPP3R1 / RFU, PIK3R1 / Fold change vs veh, PIK3R1 / RFU, HNRNPA1 / Fold change vs veh, HNRNPA1 / RFU, RNF170 / Fold change vs veh, RNF170 / RFU, ZNF28 / Fold change vs veh, ZNF28 / RFU, RNGTT / Fold change vs veh, RNGTT / RFU, OGT / Fold change vs veh, OGT / RFU, BRD1 / Fold change vs veh, BRD1 / RFU, MARS / Fold change vs veh, MARS / RFU, ZNF655 / Fold change vs veh, ZNF655 / RFU, FAHD1 / Fold change vs veh, FAHD1 / RFU, BDP1 / Fold change vs veh, BDP1 / RFU, LRRCC1 / Fold change vs veh, LRRCC1 / RFU, ARID1A / Fold change vs veh, ARID1A / RFU, ZNF146 / Fold change vs veh, ZNF146 / RFU, ZNF330 / Fold change vs veh, ZNF330 / RFU, GPN3 / Fold change vs veh, GPN3 / RFU, C9orf123 / Fold change vs veh, C9orf123 / RFU, N4BP2L2 / Fold change vs veh, N4BP2L2 / RFU, ARFIP1 / Fold change vs veh, ARFIP1 / RFU, FAM179B / Fold change vs veh, FAM179B / RFU, BCL10 / Fold change vs veh, BCL10 / RFU, UHRF1BP1L / Fold change vs veh, UHRF1BP1L / RFU, BET1 / Fold change vs veh, BET1 / RFU, CNOT2 / Fold change vs veh, CNOT2 / RFU, ZNF268 / Fold change vs veh, ZNF268 / Fold change vs veh, ZNF507 / RFU, DGCR2 / Fold change vs veh, DGCR2 / RFU, WDSUB1 / Fold change vs veh, WDSUB1 / Fold change vs veh, HSP90B1 /// MIR3652 / RFU, ADSS / Fold change vs veh, ADSS / RFU, GK / Fold change vs veh, GK / RFU, ZNF148 / Fold change vs veh, ZNF148 / RFU, TAF9 / Fold change vs veh, TAF9 / RFU, SLC1A5 / Fold change vs veh, SLC1A5 / RFU, SLMO2 / Fold change vs veh, SLMO2 / RFU, ABCC4 / Fold change vs veh, ABCC4 / RFU, LOC101060439 /// RAP1B / Fold change vs veh, LOC101060439 /// RAP1B / RFU, RFX7 / Fold change vs veh, RFX7 / RFU, GTPBP10 / Fold change vs veh, GTPBP10 / RFU, CNEP1R1 / Fold change vs veh, CNEP1R1 / RFU, BIVM-ERCC5 /// ERCC5 / Fold change vs veh, BIVM-ERCC5 /// ERCC5 / RFU, ILF3 / Fold change vs veh, ILF3 / RFU 11762660_at / Fold change /veh 11762660_at / RFU VCAN (11757783_s_at) / Fold change /veh VCAN (11757783_s_at) / RFU DDX43 (11728927_at) / Fold change /veh DDX43 (11728927_at) / RFU KRT8 (11758188_x_at) / Fold change /veh KRT8 (11758188_x_at) / RFU NKD1 (11759106_at) / Fold change /veh NKD1 (11759106_at) / RFU SRD5A1 (11742802_a_at) / Fold change /veh SRD5A1 (11742802_a_at) / RFU TPSAB1 /// TPSB2 (11721975_s_at) / Fold change /veh TPSAB1 /// TPSB2 (11721975_s_at) / RFU GSTM3 (11746129_a_at) / Fold change /veh GSTM3 (11746129_a_at) / RFU IL23R (11737362_x_at) / Fold change /veh IL23R (11737362_x_at) / RFU TMEM51 (11727254_a_at) / Fold change /veh TMEM51 (11727254_a_at) / RFU PIWIL2 (11732686_x_at) / Fold change /veh PIWIL2 (11732686_x_at) / RFU ORM1 (11744905_x_at) / Fold change /veh ORM1 (11744905_x_at) / RFU CCDC152 (11743942_at) / Fold change /veh CCDC152 (11743942_at) / RFU ECM1 (11717891_a_at) / Fold change /veh ECM1 (11717891_a_at) / RFU IL23R (11748794_a_at) / Fold change /veh IL23R (11748794_a_at) / RFU TNFAIP8L3 (11732012_x_at) / Fold change /veh TNFAIP8L3 (11732012_x_at) / RFU MBOAT4 (11741988_at) / Fold change /veh MBOAT4 (11741988_at) / RFU 11764193_at / Fold change /veh 11764193_at / RFU TMEM53 (11763286_at) / Fold change /veh TMEM53 (11763286_at) / RFU MAGEB2 (11727129_at) / Fold change /veh MAGEB2 (11727129_at) / RFU TMEM200A (11744735_a_at) / Fold change /veh TMEM200A (11744735_a_at) / RFU CCDC152 (11751479_a_at) / Fold change /veh CCDC152 (11751479_a_at) / RFU FAM211A (11726209_a_at) / Fold change /veh FAM211A (11726209_a_at) / RFU RGS16 (11746705_a_at) / Fold change /veh RGS16 (11746705_a_at) / RFU VCAN (11755009_s_at) / Fold change /veh VCAN (11755009_s_at) / RFU RHOB (11743442_s_at) / Fold change /veh RHOB (11743442_s_at) / RFU RGS16 (11720943_a_at) / Fold change /veh RGS16 (11720943_a_at) / RFU RGS16 (11720944_at) / Fold change /veh RGS16 (11720944_at) / RFU, VPS4B / Fold change vs veh, VPS4B / RFU, CREB1 / Fold change vs veh, CREB1 / RFU, DNAJC13 / Fold change vs veh, DNAJC13 / RFU, GNAQ / Fold change vs veh, GNAQ / RFU, CDK5R1 / Fold change vs veh, CDK5R1 / RFU, ZRANB3 / Fold change vs veh, ZRANB3 / RFU, CUL4A / Fold change vs veh, CUL4A / RFU, CCNY / Fold change vs veh, CCNY / RFU, UFL1 / Fold change vs veh, UFL1 / RFU, COG3 / Fold change vs veh, COG3 / RFU, DIAPH2 / Fold change vs veh, DIAPH2 / RFU, SKA2 / Fold change vs veh, SKA2 / RFU, AFF3 / Fold change vs veh, AFF3 / RFU, LMF1 / Fold change vs veh, LMF1 / RFU, IPO11 / Fold change vs veh, IPO11 / RFU, DFFB / Fold change vs veh, DFFB / RFU, FOXP1 / Fold change vs veh, FOXP1 / RFU, CARD8 / Fold change vs veh, CARD8 / RFU, STRN3 / Fold change vs veh, STRN3 / RFU, ADK / Fold change vs veh, ADK / RFU, RASSF2 / Fold change vs veh, RASSF2 / RFU, WIPF1 / Fold change vs veh, WIPF1 / RFU, LARP1B / Fold change vs veh, LARP1B / RFU, RASA1 / Fold change vs veh, RASA1 / RFU, RB1 / Fold change vs veh, RB1 / RFU, PPFIA1 / Fold change vs veh, PPFIA1 / RFU, MAT2A / Fold change vs veh, MAT2A / RFU, CCT5 / Fold change vs veh, CCT5 / RFU, WDR92 / Fold change vs veh, WDR92 / RFU, CUX1 / Fold change vs veh, CUX1 / RFU, TTC7A / Fold change vs veh, TTC7A / RFU, TMEM135 / Fold change vs veh, TMEM135 / RFU, DEPTOR / Fold change vs veh, DEPTOR / RFU, CPM / Fold change vs veh, CPM / RFU, DNAJB6 / Fold change vs veh, DNAJB6 / RFU, CACNA2D3 / Fold change vs veh, CACNA2D3 / RFU, DTX4 / Fold change vs veh, DTX4 / RFU, TFCP2 / Fold change vs veh, TFCP2 / RFU, GMCL1 /// GMCL1P1 / Fold change vs veh, GMCL1 /// GMCL1P1 / RFU, AEBP2 / Fold change vs veh, AEBP2 / RFU, SNHG1 /// SNORD22 /// SNORD25 /// SNORD26 /// SNORD27 /// SNORD28 /// SNORD29 /// SNORD31 / Fold change vs veh, SNHG1 /// SNORD22 /// SNORD25 /// SNORD26 /// SNORD27 /// SNORD28 /// SNORD29 /// SNORD31 / Fold change (Aza/veh), C12orf56 (ProbeSet 11735607_a_at) / Fold change (ACY-1035/veh), C12orf56 (ProbeSet 11735607_a_at) / Fold change (Aza/veh), FGFR1OP (ProbeSet 11751329_s_at) / Fold change (ACY-1035/veh), FGFR1OP (ProbeSet 11751329_s_at) / Fold change (Aza/veh), VPS36 (ProbeSet 11739960_a_at) / Fold change (ACY-1035/veh), VPS36 (ProbeSet 11739960_a_at) / RFU SYPL1 (11715823_x_at) / Fold change /veh SYPL1 (11715823_x_at) / RFU IGFBP7 (11715501_s_at) / Fold change /veh IGFBP7 (11715501_s_at) / RFU REEP3 (11722064_at) / Fold change /veh REEP3 (11722064_at) / RFU IGLL1 (11728026_x_at) / Fold change /veh IGLL1 (11728026_x_at): dose or concentration left out as unconfirmed
# Settings: ProbeSet 11748335_a_at; LIST B
smiles,measurement,value
Nc1ccc(-c2cccs2)cc1NC(=O)c1ccc2c(c1)cc(C1CC1)n2CCN1CCOCC1 [ACY-1035],"RFU, SLMO2",145.26 RFU

# — PMC5218480 (PLoS ONE, 2017)
